{"source": "patent US10697020B2", "about": "“MicroRNA-129 as a biomarker for colorectal cancer” (THE RESEARCH FOUNDATION FOR THE STATE UNIVERSITY OF NEW YORK, priority 2013, dated 2020)", "key": {"HCT116 cells": {"system": "HCT116 cells", "experiment": "Colorectal cancer xenografts (HCT116) in NOD/SCID mice, tumor volume", "type": "in vivo", "conditions": "day 24", "method": "When solid and palpable tumors with an average volume of 100-150 mm^3 were formed (at day 14), mice were randomly separated into four groups such that each group was treated either with negative control miRNA, miR-129 alone, 5-FU alone or miR-129 and 5-FU together. The miRNAs were complexed with siPORTamine and injected intratumorally while 5-FU (50 μg g^−1) was injected systemically via the tail vein. All injections were provided in 3-day intervals for a total of three times before the tumors were collected at day 24. […] Importantly, despite the overexpression, the expression levels of miR-129 copy number remained within the physiological range (less than 20 copies/cell based on cycle threshold value at 30, which is equal to the expression of miR-129 in normal colon mucosa). Moreover, the control tumor xenografts had no miR-129 expression (cycle threshold value at 35).\nTen-twelve week old NOD/SCID mice (Jackson Laboratories, Bar Harbor, […]., USA) were used for tumor implantation. All animal procedures were approved by the Stony Brook University Institutional Animal Care and Use Committee (IACUC). The tumor implantation and miRNA injection protocol was modified from Trang et al. (see Trang P., et al., Oncogene. (2010) 29(11):1580-7). The mice were anesthetized by isoflurane inhalation. HCT116 cells were subcutaneously injected into the lower back areas of the mice using 2.5×10^6 cells in 100 μl McCoy's 5A with 50% matrigel (BD Biosciences). The tumor size was measured using a caliper and tumor volume was calculated using the formula V=length×width^2/2. When tumor volumes reach 100-150 mm^3 at day 14 post-injection, the mice were randomly assigned into four groups. For the first two groups, 10 μM negative miRNA or miR-129 precursor (Ambion) complexed with 1.6 μl siPORTAmine (Ambion) in 50 μl McCoy's 5A was injected into the tumors every three days. For the third group, 5-FU (Sigma-Aldrich) was injected at 50 μg/g via the tail vein every three days. Finally, for the last group, both miR-129 precursor and 5-FU were injected as described above. The mice were euthanized on day 24 post-injection by CO2 inhalation, and tumors were dissected out for RNA isolation."}, "3′-UTR of BCL2 mRNA": {"system": "3′-UTR of BCL2 mRNA", "experiment": "Luciferase assay, pMIR-REPORT-3′-UTR-BCL2 in HCT116 cells", "type": "cell-based, human", "conditions": "10 nM, 24 h, normalized to negative miRNA", "method": "The predicted miR-129 binding sequence (wild-type, underlined) or a mismatch sequence (mutant, italic underlined) in the 3′UTR of Bcl2 mRNA were synthesized with SpeI and PmeI restriction site overhangs (Invitrogen). After annealing, double strand oligonucleotides were inserted into the pMIR-REPORT plasmid (Invitrogen), downstream of the firefly luciferase reporter. The sequences of these synthesized oligonucleotides are:\nTwenty-four hours before transfection, 1.5×10^4 cells were plated in 96-well plate. 10 nM of miR-129 or negative miRNA was transfected into cells together with 100 ng of pMIR-REPORT-3′-UTR-BCL2 (wild-type or mutant) and 1 ng of Renilla luciferase plasmid pRL-SV40 (Promega, Madison, Wis., USA) by DharmaFect Duo (Dharmacon, Lafayette, Colo., USA) following the manufacturer's protocol. Luciferase assay was performed 24 hour after transfection by dual-luciferase reporter assay system (Promega). For each sample, firefly luciferase activity was normalized to Renilla luciferase activity and the inhibition by miR-129 was normalized to the control miRNA."}, "[1]": {"system": "84 genes involved in cell death pathways", "experiment": "Cell Death PathwayFinder PCR Array (real time qRT-PCR)", "type": "cell-based, human", "conditions": "miR-129 transfected vs negative miRNA transfected cells", "source_text": "RNAs were extracted from cells transfected with either precursor miR-129 or negative miRNA using TRIzol reagent (Invitrogen) in accordance with the manufacturer's protocol. RNAs were transcribed to first-strand cDNA using the RT^2 First Strand Kit (SABiosciences, Qiagen, Venlo, Netherlands). Next, the cDNA is mixed with RT^2 SYBR Green Mastermix (SABiosciences), and this mixture is aliquoted into the wells of the Cell Death PathwayFinder PCR Array (PAHS-212Z). Applied Biosytems 7500 Real-Time PCR machine was used for qRT-PCR, and relative expression values were determined using the ΔΔCT method."}, "RKO cells": {"system": "RKO cells", "experiment": "Cell cycle analysis (flow cytometry), RKO", "type": "cell-based, human", "conditions": "36 h after transfection", "method": "(§1) HCT116, RKO and SW480 cells were plated in 6-well plates at 2×10^5, 1×10^5 and 1×10^5 per well, respectively. Twenty-four hours after plating, 100 nM of miR-129 precursor (Ambion, Carlsbad, Calif., USA) or siRNA against BCL2 (Dharmacon, Lafayette, Colo., USA) were transfected to the cells with oligofectamine (Invitrogen, Carlsbad, Calif., USA) in accordance with the manufacturer's protocol. Negative miRNA (Ambion) was also transfected as a negative control.\nThirty-six hours after transfection, cells were harvested and resuspended at 0.5 to 1×10^6 cells/m in modified Krishan buffer supplemented with 0.02 mg/ml RNase H (Invitrogen) and 0.05 mg/ml propidium iodide (Sigma-Aldrich, St. Louis, Mo., USA) (See, Krishan A. The Journal of Cell Biology. 1975; 66(1):188-93). Stained cells were detected by flow cytometry and results were analyzed with Modfit LT™ software. The experiments for cell cycle analysis were performed at least three times."}, "[2]": {"system": "cleaved caspase-3 and cleaved caspase-9", "experiment": "Western immunoblot analysis of cleaved caspases in HCT116 cells", "type": "cell-based, human", "conditions": "HCT116 cells with ectopic expression of miR-129", "method": "as §1\nForty-eight hours after transfection, cells were lysed with RIPA buffer (Sigma-Aldrich), and Western immunoblotting was performed using standard procedures. The primary antibodies used for the analysis were mouse anti-human BCL2 antibody (1:200; Thermo Fisher Scientific, Fremont, Calif., USA), rabbit anti-human cleaved caspase-3 antibody (1:200; Cell Signaling Technology, Beverly, Mass., USA), rabbit anti-human cleaved caspase-9 antibody (1:200; Cell Signaling Technology), mouse anti-human E2F3 antibody (1:5000; Millipore, Billerica, Mass., USA), mouse anti-human TS antibody (1:400; Millipore), mouse anti-human GAPDH antibody (1:1000, Santa Cruz Biotechnology, Santa Cruz, Calif., USA) or mouse anti-human α-tubulin antibody (1:1000; Millipore). […] HRP activity was detected with SuperSignal West Pico Chemiluminescent Substrate (Thermo Fisher Scientific) and visualized in an UVP Bioimaging system."}}}
{"substance": "miR-129: nucleic acid having a sequence of CUUUUUGCGGUCUGGGCUUGC (SEQ ID NO. 1); miR-129 precursor from Ambion used (chemistry not given here; listed as Homo sapiens)", "values": [{"measurement": "inhibition of tumor growth (in words)", "setting": "HCT116 cells; HCT116 xenograft, compared with negative miRNA or single agents", "value": "sufficiently reduced tumor size"}, {"measurement": "average tumor volume, % of the control group", "setting": "HCT116 cells; treated days 14, 17, 20, miRNA intratumoral with siPORTamine, 5-FU 50 μg/g tail vein, control negative miRNA", "value": "~84.4", "unit": "%"}, {"measurement": "firefly luciferase activity of pMIR-REPORT-3′-UTR-BCL2 (wild-type)", "setting": "3′-UTR of BCL2 mRNA", "value": "significantly inhibited the luciferase activity"}, {"measurement": "luciferase activity of reporter with 3′-UTR of BCL2 with three point mutations in the miR-129 binding site (mutant)", "setting": "3′-UTR of BCL2 mRNA", "value": "did not inhibit the luciferase activity"}, {"measurement": "Fold change (miR-129/neg)", "setting": "[1]; gene APAF1", "value": 2.44}, {"measurement": "Fold change (miR-129/neg)", "setting": "[1]; gene BAX", "value": 27.77}, {"measurement": "Fold change (miR-129/neg)", "setting": "[1]; gene BCL2A1", "value": 0.04}, {"measurement": "Fold change (miR-129/neg)", "setting": "[1]; gene BIRC3", "value": 0.28}, {"measurement": "Fold change (miR-129/neg)", "setting": "[1]; gene CASP2", "value": 7.68}, {"measurement": "Fold change (miR-129/neg)", "setting": "[1]; gene CASP3", "value": 1.27}, {"measurement": "Fold change (miR-129/neg)", "setting": "[1]; gene CASP7", "value": 4.75}, {"measurement": "Fold change (miR-129/neg)", "setting": "[1]; gene CASP9", "value": 2.53}, {"measurement": "Fold change (miR-129/neg)", "setting": "[1]; gene MCL1", "value": 3.81}, {"measurement": "Fold change (miR-129/neg)", "setting": "[1]; gene PARP2", "value": 0.47}, {"measurement": "cell cycle arrest (G1/S and G2/S ratios)", "setting": "RKO cells", "value": "at G1 checkpoint"}, {"measurement": "protein levels of cleaved caspase-9 and cleaved caspase-3", "setting": "[2]", "value": "elevated the protein levels"}]}
